The record followed here is patent US20150273069A1, “FATTY ACID ACYLATED AMINO ACIDS FOR ORAL PEPTIDE DELIVERY” (NOVO NORDISK A/S, priority 2012, published 2015).

The structures appear in SMILES notation.

Data set [1] in a line: Transport of semaglutide across Caco-2 cell monolayers in the presence of fatty acid acylated amino acids. Format: in vitro ADME. The note with it: human, Caco-2; permeation of semaglutide (100 μM), apical to basolateral, permeation enhancer: None, pH 7.4. The method, then:
(§1) Caco-2 cells were obtained from the American Type Culture Collection (Manassas, Va.). Cells were seeded in culturing flasks and passaged in Dulbecco's Modified Eagle′ medium supplemented with 10% fetal bovine serum, 1% penicillin/streptomycin (100 U/ml and 100 μg/ml, respectively), 1% L-glutamine and 1% nonessential amino acids. Caco-2 cells were seeded onto tissue culture treated polycarbonate filters in 12-well Transwell® plates (1.13 cm2, 0.4 μm pore size) at a density of 10^5 cells/well. Monolayers were grown in an atmosphere of 5% CO2-95% O2 at 37° C. Growth media were replaced every other day. The experiment was performed on day 10-14 after seeding of Caco-2 cells.
(§2) The amount of compound transported from the donor chamber (apical side) to the receiver chamber (basolateral side) was measured. The transport study was initiated by adding 400 μl solution (100 μM of semaglutide+0.5 mM fatty acid acylated amino acids) and 0.4 μCi/μl [3H]manntiol in transport buffer to the donor chamber and 1000 μl transport buffer to the receiver chamber. The transport buffer consisted of Hank's balanced saline solution containing 10 mM HEPES, […] to pH 7.4 after addition of compounds. The transport of [^3H]mannitol, a marker for paracellular transport, was measured to verify the integrity of the epithelium.
(§3) Before the experiment, the Caco-2 cells were equilibrated for 60 min with transport buffer on both sides of the epithelium. Buffer was then removed and the experiment initiated. Donor samples (20 μl) were taken at 0 min and at the end of the experiment. Receiver samples (200 μl) were taken every 15 min. The study was performed in an atmosphere of 5% CO2-95% O2 at 37° C. on a shaking plate (30 rpm).
(§4) In all samples with semaglutide and mannitol, the concentration was determined using a LOCI assay and scintillation counter, respectively.
(§5) Before and during the experiment the transepithelial electrical resistance (TEER) of the cell monolayers was monitored. In selected experiments, the transport buffer were changed to culturing medium after end of experiment and the TEER measured 24 h after experiment. The TEER was measured with EVOM™ Epithelial Voltohmmeter connected to Chopsticks.
(In general: Caco-2 monolayers are a common model of the intestinal barrier.)

A further data set relates to Caco-2 cell monolayers. The data set is described as above. Format: in vitro ADME. The note with it: for permeation enhancing effect: on semaglutide across Caco-2 monolayers, compared among the fatty acid acylated amino acids tested; for Papp: permeation of semaglutide (100 μM), apical to basolateral, with 0.5 mM fatty acid acylated amino acid, pH 7.4. The method, then:
as §1, §2, §3, §4, §5

Consider `CC[C@H](C)[C@H](NC(=O)[C@H](Cc1ccccc1)NC(=O)[C@H](CCC(=O)O)NC(=O)[C@H](CCCCNC(=O)COCCOCCNC(=O)COCCOCCNC(=O)CC[C@H](NC(=O)CCCCCCCCCCCCCCCCC(=O)O)C(=O)O)NC(=O)[C@H](C)NC(=O)[C@H](C)NC(=O)[C@H](CCC(N)=O)NC(=O)CNC(=O)[C@H](CCC(=O)O)NC(=O)[C@H](CC(C)C)NC(=O)[C@H](Cc1ccc(O)cc1)NC(=O)[C@H](CO)NC(=O)[C@H](CO)NC(=O)[C@@H](NC(=O)[C@H](CC(=O)O)NC(=O)[C@H](CO)NC(=O)[C@@H](NC(=O)[C@H](Cc1ccccc1)NC(=O)[C@@H](NC(=O)CNC(=O)[C@H](CCC(=O)O)NC(=O)C(C)(C)NC(=O)[C@@H](N)Cc1cnc[nH]1)[C@@H](C)O)[C@@H](C)O)C(C)C)C(=O)N[C@@H](C)C(=O)N[C@@H](Cc1c[nH]c2ccccc12)C(=O)N[C@@H](CC(C)C)C(=O)N[C@H](C(=O)N[C@@H](CCCNC(=N)N)C(=O)NCC(=O)N[C@@H](CCCNC(=N)N)C(=O)NCC(=O)O)C(C)C` [semaglutide, N-epsilon26-[2-(2-{2-[2-(2-{2-[(S)-4-carboxy-4-(17-carboxyheptadecanoylamino)butyrylamino]ethoxy}ethoxy)acetylamino]ethoxy}ethoxy)acetyl][Aib8,Arg34]GLP-1(7-37), reference compound], for which the Papp A→B (in general, how fast a substance crosses the layer from the apical side) at 100 μM in data set [1] came out at 0.0065 ×10⁻⁶ cm/s.
For `CCCCCCCCCCCCCC(=O)N[C@@H](CC(C)C)C(=O)[O-].[Na+]` [Sodium N-myristoyl L-leucinate], in the data set with Caco-2 cell monolayers, the permeation enhancing effect entry is given as “greatest effect” and the Papp is recorded as 63.88 10^−8 cm/s.
As for `CCCCCCCCCC(=O)N[C@@H](CC(C)C)C(=O)[O-].[Na+]` [Sodium N-decanoyl L-leucinate], in the data set on Caco-2 cell monolayers, the Papp is given as 2.12 10^−8 cm/s.
Same read-out and setting: to `CCCCCCCCCCCC(=O)N[C@@H](CC(C)C)C(=O)[O-].[Na+]` [Sodium N-dodecanoyl L-leucinate] belongs 2.53 10^−8 cm/s.
For the compound `CCCCCCCCCC(=O)N[C@@H](CC(N)=O)C(=O)[O-].[Na+]` [Sodium N-decanoyl L-asparaginate], the Papp in the data set on Caco-2 cell monolayers is listed as 0.31 10^−8 cm/s.
`CCCCCCCCCCCC(=O)N[C@@H](Cc1ccccc1)C(=O)[O-].[Na+]` [Sodium N-dodecanoyl L-phenylalaninate]: the Papp in the data set with Caco-2 cell monolayers is 5.60 10^−8 cm/s.
As for `CCCCCCCCCCCCCC(=O)N[C@H](C(=O)[O-])C(C)C.[Na+]` [Sodium N-myristoyl L-valinate], in the data set on Caco-2 cell monolayers, the permeation enhancing effect result is “greatest effect” and the Papp is given as 78.83 10^−8 cm/s.
